Reference: US10960007B2, “Pharmacologically active aryl-substituted pyrazolo[1,5-a]pyrimidine derivatives” (RICHTER GEDEON NYRT., priority 2017, dated 2021)
Where two headings read alike, the source gives them in different places. Values belong to the compound of their own block, whether it stands above or below them.

How the values were obtained:
GABAB receptor [1] = target: T1, GABAB receptor (Rattus norvegicus, UniProt O88871+Q9Z0U4); assay: In vitro [35S]GTPγS binding assay in rat cortical membranes; format: biochemical
T1 construct: from tissue; host or cells: rat brain cortex membranes
Method: In Vitro [^35S]GTPγS Binding Assay in Rat Cortical Membranes
Cortices of freshly harvested rat brains were dissected on an ice-cold surface and homogenized by a glass Dounce homogeniser immediately in ice-cold buffer containing 50 mM Tris, 5 mM MgCl2 and 1 mM EDTA (pH=7.6). Tissue homogenates were centrifuged at 40000 g for 15 min at 4° C. Membrane pellets were resuspended in the same buffer and membranes were incubated for 10 min at 30° C. in a shaking water bath to eliminate endogenous GABA. Homogenates were centrifuged again under the same conditions. The final pellets were resuspended in ice-cold buffer (pH=7.6) containing 50 mM Tris, 100 mM NaCl, 7 mM MgCl2, 1 mM EDTA and 1 mM dithiotreithol (DTT) to yield a concentration of 20 mg tissue weight/ml and frozen at −70° C. until use. The assay was done in a buffer containing 50 mM Tris (pH=7.4), 100 mM NaCl, 7 mM MgCl2, 1 mM EDTA and 1 mM DTT. Each assay tube contained 150 μL GDP (in a final concentration of 50 μM), 100 μL ligand and 125 μL of the membrane suspension (250 μg tissue/tube). The assay tubes were preincubated for 10 min at 30° C. to assure equilibrium. Nonspecific binding was determined in the presence of 10 μM GTPγS; basal binding was determined in the presence of buffer only. After addition of […] [^35S]GTPγS in a volume of 25 μL to the tubes, membranes were incubated for an additional 60 min at 30° C. The assay was terminated by rapid filtration through Packard UniFilter GF/B using a Packard harvester and washed four times with 1 ml ice-cold buffer. After drying the filters at 40° C. for 1 h, 40 μL Microscint (Packard) was added to the filters and radioactivity of the filters was determined by a TopCount NXT (PerkinElmer, Waltham, Mass.; Alper and Nelson, Eur. J. Pharmacol. 1998, 343, 303-312; Rinken et al, Biochem. Pharmacol. 1999, 57, 155-162). Data thus gathered were used to determine PAM EC50 values for each compound as primary in vitro activity end point.

GABAB receptor [2] = target: T2, GABAB receptor (Homo sapiens, UniProt O75899+Q9UBS5); details: Perdona et al, Neuropharmacology 2011; read-out: EC50, positive modulation of EC20 GABA-evoked [35S]GTPγS binding signal; cited from earlier work
rats = details: significance only at high doses (30 and 100 mg/kg); cited from earlier work
mice = details: cited from earlier work
[3] = human conventional liver microsomes; cited from earlier work
[4] = rat conventional liver microsomes; cited from earlier work
[5] = mouse conventional liver microsomes; cited from earlier work
GABAB receptor [6] = target: T2, GABAB receptor; details: compounds of Faghih et al., US 2016/0304527 A1; cited from earlier work
adult rats = assay: Foot shock-induced ultrasonic vocalization (USV) in adult rats; format: in vivo, rat; details: male Wistar rats
Method: Foot Shock-Induced Ultrasonic Vocalization (USV) in Adult Rats
(§1) Under stressful conditions, adult rats emit 22 kHz ultrasounds that can be reduced by various pharmacological treatments (De Vry et al, Eur. J. Pharmacol. 1993, 249, 331-339; Sanchez, Eur. J. Pharmacol. 2003, 463, 133-143). […] Therefore, a foot shock-induced vocalization paradigm in adult rats was used to assess in vivo efficacy of centrally acting GABAB receptor ligands. Behavioral measurements were carried out on male Wistar rats (200-250 g, Toxicoop, Hungary). Rats were housed in groups of four in plastic cages with a wire grid top in a temperature and light-controlled laboratory animal care unit (22±2° C., 12-h light/dark cycle, lights on at 6:00 AM) with ad libitum access to commercial pellet rat food and tap water. Investigations were approved by the Local Ethical Committee of Gedeon Richter Plc. and were carried out in strict compliance with the European Directive 2010/63/EU regarding the care and use of laboratory animals for experimental procedures and all efforts were made to minimize the number of animals as well as their suffering. In order to evoke emission of ultrasounds, animals were footshocked after a habituation period of 30 s (6 shocks, 1 s, 0.8 mA each, inter-shock interval 10 s) in a sound attenuated shocking chamber (Experimetria, 40×40×80 cm). […] Vocalizations were measured right after the last footshock for 10 min with a Metris Sonotrack system and the total time of vocalizations was registered. Vocalization of parallel vehicle treated animals was considered as control value and inhibition percent was calculated for each compound. At approximately 75 min after treatment and behavioral measurements, blood and brain samples were harvested in order to determine exposures associated with in vivo activity.

[7] = Plasma and brain exposure after USV measurement; format: in vivo; details: rat, per os, about 75 min after treatment, formulation Tween
Method: as §1

[8] = [35S]GTPγS binding, rat cortical membranes, read-out: In vitro PAM potency (PAM EC50)

T1 sequence (O88871 41-940): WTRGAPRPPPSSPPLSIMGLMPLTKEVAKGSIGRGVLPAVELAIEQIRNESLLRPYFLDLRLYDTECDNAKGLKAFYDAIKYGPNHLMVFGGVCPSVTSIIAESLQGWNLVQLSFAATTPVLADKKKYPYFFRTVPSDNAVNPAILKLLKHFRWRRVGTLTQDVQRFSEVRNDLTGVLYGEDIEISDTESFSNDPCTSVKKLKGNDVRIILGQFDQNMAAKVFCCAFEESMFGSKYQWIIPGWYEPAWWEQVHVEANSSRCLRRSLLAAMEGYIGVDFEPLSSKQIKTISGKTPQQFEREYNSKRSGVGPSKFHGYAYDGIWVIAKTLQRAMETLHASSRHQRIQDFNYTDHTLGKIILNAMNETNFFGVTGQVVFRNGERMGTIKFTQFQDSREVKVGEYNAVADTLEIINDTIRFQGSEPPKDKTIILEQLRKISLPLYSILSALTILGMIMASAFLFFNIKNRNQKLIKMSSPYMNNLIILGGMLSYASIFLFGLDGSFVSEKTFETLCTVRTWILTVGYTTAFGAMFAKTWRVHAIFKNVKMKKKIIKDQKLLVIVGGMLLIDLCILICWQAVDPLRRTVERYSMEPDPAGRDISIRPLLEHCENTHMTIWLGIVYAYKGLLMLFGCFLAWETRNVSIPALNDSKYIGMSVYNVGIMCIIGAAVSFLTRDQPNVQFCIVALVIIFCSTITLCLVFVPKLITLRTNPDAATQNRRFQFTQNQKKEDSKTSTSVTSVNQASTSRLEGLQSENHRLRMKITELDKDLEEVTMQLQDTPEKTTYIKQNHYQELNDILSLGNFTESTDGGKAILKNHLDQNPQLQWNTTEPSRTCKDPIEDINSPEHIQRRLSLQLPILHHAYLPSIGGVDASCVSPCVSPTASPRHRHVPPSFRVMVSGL
T1 sequence (Q9Z0U4 17-960 limits assumed): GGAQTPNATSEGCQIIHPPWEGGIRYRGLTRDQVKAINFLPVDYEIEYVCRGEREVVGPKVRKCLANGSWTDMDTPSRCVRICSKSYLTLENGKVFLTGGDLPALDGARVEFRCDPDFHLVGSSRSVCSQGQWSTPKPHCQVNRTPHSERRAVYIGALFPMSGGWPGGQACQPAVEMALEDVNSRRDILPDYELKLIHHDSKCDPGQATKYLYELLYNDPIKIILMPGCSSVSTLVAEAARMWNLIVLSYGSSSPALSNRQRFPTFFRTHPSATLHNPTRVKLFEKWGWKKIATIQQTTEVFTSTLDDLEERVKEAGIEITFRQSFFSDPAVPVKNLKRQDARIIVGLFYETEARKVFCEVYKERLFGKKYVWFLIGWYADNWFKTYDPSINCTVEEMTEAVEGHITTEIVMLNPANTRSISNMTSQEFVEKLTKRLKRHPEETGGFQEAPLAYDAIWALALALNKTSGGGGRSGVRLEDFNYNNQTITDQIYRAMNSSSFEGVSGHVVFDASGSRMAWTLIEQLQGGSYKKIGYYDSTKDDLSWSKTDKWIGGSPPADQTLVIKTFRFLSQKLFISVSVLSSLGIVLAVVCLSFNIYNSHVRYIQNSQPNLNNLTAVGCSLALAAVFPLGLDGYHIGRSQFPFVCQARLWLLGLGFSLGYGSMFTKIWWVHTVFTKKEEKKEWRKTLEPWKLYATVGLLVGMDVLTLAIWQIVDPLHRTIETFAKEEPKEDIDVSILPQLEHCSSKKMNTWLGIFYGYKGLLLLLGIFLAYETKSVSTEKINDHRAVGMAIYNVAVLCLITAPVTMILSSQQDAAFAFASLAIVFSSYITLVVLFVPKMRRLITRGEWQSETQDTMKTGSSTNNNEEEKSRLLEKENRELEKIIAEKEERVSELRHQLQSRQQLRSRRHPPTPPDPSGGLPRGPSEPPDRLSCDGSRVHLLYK
T2 sequence (O75899 42-941): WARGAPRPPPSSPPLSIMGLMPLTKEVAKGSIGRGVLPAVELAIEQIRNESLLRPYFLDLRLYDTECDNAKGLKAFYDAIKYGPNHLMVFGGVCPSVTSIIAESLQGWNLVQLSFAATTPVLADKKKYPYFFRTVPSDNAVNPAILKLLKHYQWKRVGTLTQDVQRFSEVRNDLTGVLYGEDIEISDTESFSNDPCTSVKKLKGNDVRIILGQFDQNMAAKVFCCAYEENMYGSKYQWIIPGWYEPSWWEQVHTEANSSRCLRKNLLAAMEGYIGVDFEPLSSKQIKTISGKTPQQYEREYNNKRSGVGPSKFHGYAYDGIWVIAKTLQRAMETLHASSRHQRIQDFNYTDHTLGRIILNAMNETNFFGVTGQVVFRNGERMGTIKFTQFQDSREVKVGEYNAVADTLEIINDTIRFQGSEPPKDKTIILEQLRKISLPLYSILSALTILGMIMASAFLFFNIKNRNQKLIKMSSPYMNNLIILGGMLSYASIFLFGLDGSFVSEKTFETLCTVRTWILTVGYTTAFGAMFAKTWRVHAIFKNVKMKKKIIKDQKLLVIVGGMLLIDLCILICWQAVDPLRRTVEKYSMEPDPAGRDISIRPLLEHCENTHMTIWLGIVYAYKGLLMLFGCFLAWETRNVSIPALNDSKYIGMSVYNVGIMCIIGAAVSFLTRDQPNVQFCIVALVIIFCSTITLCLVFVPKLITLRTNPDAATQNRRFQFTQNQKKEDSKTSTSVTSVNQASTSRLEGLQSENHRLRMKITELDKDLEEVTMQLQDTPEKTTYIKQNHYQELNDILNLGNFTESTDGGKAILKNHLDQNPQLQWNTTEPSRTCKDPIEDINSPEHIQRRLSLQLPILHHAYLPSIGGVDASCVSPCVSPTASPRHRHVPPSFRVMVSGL
T2 sequence (Q9UBS5 15-961 limits assumed): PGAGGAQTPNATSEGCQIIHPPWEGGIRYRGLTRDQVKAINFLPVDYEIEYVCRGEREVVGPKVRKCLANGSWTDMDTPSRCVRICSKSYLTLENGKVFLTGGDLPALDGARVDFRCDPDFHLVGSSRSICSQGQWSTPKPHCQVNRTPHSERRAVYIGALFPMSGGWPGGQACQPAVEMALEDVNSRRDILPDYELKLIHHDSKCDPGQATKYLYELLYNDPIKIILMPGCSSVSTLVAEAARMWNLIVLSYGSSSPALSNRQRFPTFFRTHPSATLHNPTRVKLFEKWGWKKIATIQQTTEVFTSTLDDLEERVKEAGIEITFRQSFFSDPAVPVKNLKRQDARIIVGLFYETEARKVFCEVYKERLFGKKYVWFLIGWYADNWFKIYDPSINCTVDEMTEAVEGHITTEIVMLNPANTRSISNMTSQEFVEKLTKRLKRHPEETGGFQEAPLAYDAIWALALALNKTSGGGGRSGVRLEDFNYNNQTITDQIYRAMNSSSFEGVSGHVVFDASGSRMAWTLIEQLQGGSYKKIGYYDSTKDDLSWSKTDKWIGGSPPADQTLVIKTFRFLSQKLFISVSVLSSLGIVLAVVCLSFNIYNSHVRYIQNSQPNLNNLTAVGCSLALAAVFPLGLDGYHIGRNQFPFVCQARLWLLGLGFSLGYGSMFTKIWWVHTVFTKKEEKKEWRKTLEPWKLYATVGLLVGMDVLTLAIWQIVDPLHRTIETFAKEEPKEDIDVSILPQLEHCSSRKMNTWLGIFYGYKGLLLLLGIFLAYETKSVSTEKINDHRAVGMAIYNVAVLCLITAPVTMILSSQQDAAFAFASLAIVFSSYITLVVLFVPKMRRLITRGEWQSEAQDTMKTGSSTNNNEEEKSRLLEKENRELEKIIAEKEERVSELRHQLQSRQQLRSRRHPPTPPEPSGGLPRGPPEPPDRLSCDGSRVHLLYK

- EC50 (GABAB receptor [1]; applicant's test system, read-out: EC50 in our in vitro [35S]GTPγS test system): 611 nM
Compound: Cc1cc(N2CCCCC2CCO)n2nc(-c3ccc(Cl)cc3)cc2n1 (stereo not shown) [CMPPE, 2-{1-[2-(4-chlorophenyl)-5-methylpyrazolo[1,5-a]pyrimidin-7-yl]-2-piperidinyl}ethanol]
- EC50 (GABAB receptor [2]): 2570 nM
- Efficacy in food consumption test (rats): mild efficacy
- ED50, potentiation of baclofen-induced muscle relaxation (mice): 53.8 mg/kg
- Clint [3]: 0.19±0.02 mL/min/g liver
- Clint [4]: 0.31±0.07 mL/min/g liver
- Clint [5]: 1.18±0.4 mL/min/g liver

Compound: CCC(c1ccc(Cl)cc1)c1cc2nc(C)cc(N3CCCCC3CCO)n2n1 (stereo not shown) [Example 3-1]
- Binding potency (in words) (GABAB receptor [6]): nanomolar

- EC50 (GABAB receptor [1]; [8]): 10 to 100 nM
- Brain exposure at 1 mg/kg [7]: 184 ng/g
- Plasma exposure at 1 mg/kg [7]: 222 ng/mL
Compound: Cc1nc2cc(-c3ccc(C(F)(F)F)cc3)nn2c(N2CCC[C@@](C(=O)O)(C(C)C)C2)c1C(C)C [Example 28]
- inhibition in vivo at 10 mg/kg (adult rats; Rattus norvegicus, po, 10 mg/kg per os, 1 h before shocking): 35%

- EC50 (GABAB receptor [1]; [8]): 1 to 10 nM
- Brain exposure at 1 mg/kg [7]: 85 ng/g
- Plasma exposure at 1 mg/kg [7]: 113 ng/mL
Compound: Cc1nc2c(F)c(-c3ccc(C(F)(F)F)cc3)nn2c(N2CCC[C@](C)(C(=O)O)C2)c1C(C)C [Example 84]
- USV inhibition (%) (adult rats; at 3 mg/kg, per os): 42 (at 3 mg/kg) %
